Where two headings read alike, the source gives them in different places.
Tests used:
[1] = target: T1, truncated form of human Choline kinase α1 that includes residues 75-457 (Homo sapiens, UniProt P35790); assay: Kinase Assay, coupled (ATP regeneration) LDH/PK assay, NADH absorbance; type: biochemical
T1 construct: made in house
Method: Absorbance of NADH (340 nm) was measured over 30 min using a SpectraMax M5 (Molecular Devices). Initial reaction velocity (ΔA340/Δt) was calculated and plotted as a function of inhibitor concentration in a 2-fold dilution series. IC50 values were obtained by fitting the relative velocities to a dose-response model.

ChoKα protein = target: T2, ChoKα protein (Homo sapiens, UniProt P35790); assay: Binding affinity by surface plasmon resonance (SensiQ Pioneer, FastStep)
T2 construct: made in house
Method: KD may be measured using surface plasmon resonance (BIAcore®) technology, see, e.g., Panayotou et al, Mol. Cell. […] ChoKα protein was immobilized by standard amine coupling methods on a COOH5 sensor chip installed in a SensiQ Pioneer system. Sensograms were measured using the FastStep™ screen method with an upper concentration of 500 nM. Kinetics and affinity were obtained from fits using a 1:1 binding model.

cancer cell lines = assay: Cellular Growth Inhibition Assay (CyQuant Cell Proliferation Assay Kit); type: cell-based
Method: Cellular Growth Inhibition AssayVehicle or compound treated cells were assessed for cell growth after 72 hours of treatment using the CyQuant® Cell Proliferation Assay Kit (Life Technologies, Grand Island, N.Y.). […] Data are shown as mean (±SD) from ≧2 separate experiments.

[2] = tested on: phosphocholine levels in MDA-MB-468 cells; assay: Phosphocholine Assay (1H-NMR) in MDA-MB-468 cells; type: cell-based; conditions: Homo sapiens, 24 hours of treatment, read-out: IC50 of pCh
Method: (§1) 5×10^6 cells of each line were grown in the presence of increasing concentration of the test compound or vehicle (DMSO) for 24 hours, then counted and viability checked by Trypan Blue Exclusion protocol. 5×10^6 viable cells were washed twice in ice cold D-PBS, then solubilized by vortexing for 30 seconds in 6 mL ice cold 100% methanol. 6 mL of chloroform and 6 mL of water were added and the mixture vortexed again. After centrifugation for 10 minutes @ 5,220 rpms, 10 mL of the aqueous phase is removed and lyophilized. The samples were analyzed by ^1H-NMR to determine phosphocholine levels.
Similarly, dose dependent inhibition of phosphocholine levels in MDA-MB-468 cells by the compound provided in Example 45 was determined by ^1H-NMR analysis after 24 hours of treatment with increasing concentrations consisting of 0.1 μM, 1.0 μM, 10 μM, 20 μM, and 80 μM. By this method, the IC50 of pCh was determined to be 3 μM of the compound provided in Example 45.

[3] = tested on: phosphocholine levels in MDA-MB-415 cells; assay: Phosphocholine Assay (1H-NMR) in MDA-MB-415 cells; type: cell-based; conditions: Homo sapiens, 24 hours of treatment, read-out: IC50 of pCh
Method: as §1
Dose dependent inhibition of phosphocholine levels in MDA-MB-415 cells by the compound provided in Example 55 was determined by ^1H-NMR analysis after 24 hours of treatment with increasing concentrations consisting of 0.25 μM, 0.50 μM, 1.0 μM, 2.0 μM, 4.0 μM, 8.0 μM and 16 μM.

[4] = Examples not designated with an asterisk, footnote prints version 1 of the Kinase Assay, read-out: IC50
[5] = SPR, 1:1 binding model, upper concentration 500 nM, read-out: Kd
[6] = 72 hours of treatment, cell line not named, read-out: GI50

T1 sequence (P35790 75-457): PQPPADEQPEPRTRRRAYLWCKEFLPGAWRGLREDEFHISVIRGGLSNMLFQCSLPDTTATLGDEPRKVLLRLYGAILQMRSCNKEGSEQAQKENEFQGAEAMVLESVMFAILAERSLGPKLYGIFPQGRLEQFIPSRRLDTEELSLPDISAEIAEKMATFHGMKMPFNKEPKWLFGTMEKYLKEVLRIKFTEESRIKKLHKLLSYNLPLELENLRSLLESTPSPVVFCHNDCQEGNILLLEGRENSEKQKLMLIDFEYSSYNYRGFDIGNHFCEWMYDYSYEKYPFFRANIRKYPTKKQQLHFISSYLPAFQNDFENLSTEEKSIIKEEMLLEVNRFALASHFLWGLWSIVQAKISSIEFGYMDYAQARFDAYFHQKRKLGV
T2 sequence (P35790 75-457): as above

| SMILES | IC50 [1] [nM] | Kd (ChoKα protein) [nM] | GI50 (cancer cell lines; 72 h) [nM] | IC50 [2] [nM] | IC50 [1, 4] [nM] | Kd (ChoKα protein; [5]) [nM] | GI50 (cancer cell lines; [6]) [nM] | IC50 [3] [nM] |
| --- | --- | --- | --- | --- | --- | --- | --- | --- |
| CN1CCCN(Cc2ccc(-c3ccc(CN4CCCN(C)CC4)cc3)cc2)CC1 [Example 45, 4,4′-bis((4-methyl-1,4-diazepan-1-yl)methyl)-1,1′-biphenyl] | < 200 | < 60000 | < 5000 | 3000 | – | – | – | – |
| CNS(=O)(=O)c1ccc(-c2ccc(CN3CCCN(C)CC3)cc2C#N)cc1 [Example 86, 2′-cyano-N-methyl-4′-((4-methyl-1,4-diazepan-1-yl)methyl)-[1,1′-biphenyl]-4-sulfonamide] | – | – | – | – | < 100 | < 50 | < 5000 | – |
| CN1CCCN(Cc2ccc(-c3ccc(CN4CCCN(C)CC4)cc3F)cc2)CC1 [Example 44, 4,4′-((2-fluoro-[1,1′-biphenyl]-4,4′-diyl)bis(methylene))bis(1-methyl-1,4-diazepane)] | < 200 | < 200 | < 5000 | – | – | – | – | – |
| CN1CCCN(Cc2ccc(-c3ccc(C(=O)N4CCCN(C)CC4)cc3)c(C#N)c2)CC1 [Example 33, 4-((4-methyl-1,4-diazepan-1-yl)methyl)-4′-(4-methyl-1,4-diazepane-1-carbonyl)-[1,1′-biphenyl]-2-carbonitrile] | – | – | – | – | < 200 | < 200 | > 20000 | – |
| CN1CCCN(Cc2ccc(-c3ccc4cn[nH]c4c3)c(C#N)c2)CC1 [Example 89, 2-(1H-indazol-6-yl)-5-((4-methyl-1,4-diazepan-1-yl)methyl)benzonitrile] | – | – | – | – | < 100 | < 50 | > 20000 | – |
| CN1CCCN(Cc2ccc(-c3ccc(CN4CCCN(C)CC4)c(F)c3)cc2)CC1 [Example 42, 4,4′-((3-fluoro-[1,1′-biphenyl]-4,4′-diyl)bis(methylene))bis(1-methyl-1,4-diazepane)] | – | – | – | – | < 200 | < 200 | < 5000 | – |
| CN1CCCN(Cc2ccc(-c3ccc(CN4CCC(O)CC4)cc3)c(C#N)c2)CC1 [Example 4, 4′-((4-hydroxypiperidin-1-yl)methyl)-4-((4-methyl-1,4-diazepan-1-yl)methyl)-[1,1′-biphenyl]-2-carbonitrile] | – | – | – | – | < 100 | < 50 | < 20000 | – |
| CN1CCCN(Cc2ccc(-c3ccc(CN4CCCN(C)CC4)cc3C#N)cc2)CC1 [Example 14, 4,4′-bis((4-methyl-1,4-diazepan-1-yl)methyl)-[1,1′-biphenyl]-2-carbonitrile] | < 100 | < 50 | < 5000 | – | – | – | – | – |
| CN1CCCN(Cc2ccc(-c3ccc(C(=O)NC4CC4)cc3)c(C#N)c2)CC1 [Example 32, 2′-cyano-N-cyclopropyl-4′-((4-methyl-1,4-diazepan-1-yl)methyl)-[1,1′-biphenyl]-4-carboxamide] | – | – | – | – | < 200 | < 60000 | < 20000 | – |
| CN1CCCN(Cc2ccc(-c3ccc(C(=O)N4CCCN(C)CC4)cc3)cc2)CC1 [Example 37, (4-methyl-1,4-diazepan-1-yl)(4′-((4-methyl-1,4-diazepan-1-yl)methyl)-[1,1′-biphenyl]-4-yl)methanone] | < 200 | < 200 | > 20000 | – | – | – | – | – |
| CN1CCCN(Cc2ccc(-c3ccc(CN4CCCN(C)CC4)cc3C#N)c(F)c2)CC1 [Example 55, 2′-fluoro-4,4′-bis((4-methyl-1,4-diazepan-1-yl)methyl)-[1,1′-biphenyl]-2-carbonitrile] | < 200 | < 100 | < 5000 | – | – | – | – | 750 |
| CN1CCCN(Cc2ccc(-c3cc(F)c(CN4CCCN(C)CC4)c(F)c3)cc2)CC1 [Example 40, 4,4′-((3,5-difluoro-[1,1′-biphenyl]-4,4′-diyl)bis(methylene))bis(1-methyl-1,4-diazepane)] | < 200 | < 60000 | < 20000 | – | – | – | – | – |
| CN1CCCN(Cc2ccc(-c3ccc(CN4CCCN(C)CC4)c(Cl)c3)cc2)CC1 [Example 43, 4,4′-((3-chloro-[1,1′-biphenyl]-4,4′-diyl)bis(methylene))bis(1-methyl-1,4-diazepane)] | < 200 | < 200 | < 5000 | – | – | – | – | – |
| CN1CCCN(Cc2ccc(-c3ccc(NS(C)(=O)=O)cc3)c(C#N)c2)CC1 [Example 104, N-(2′-cyano-4′-((4-methyl-1,4-diazepan-1-yl)methyl)-[1,1′-biphenyl]-4-yl)methanesulfonamide] | – | – | – | – | < 100 | < 50 | > 20000 | – |
| CN1CCCN(Cc2ccc(-c3ccc(C4(NS(C)(=O)=O)CC4)cc3)c(C#N)c2)CC1 [Example 82, N-(1-(2′-cyano-4′-((4-methyl-1,4-diazepan-1-yl)methyl)-[1,1′-biphenyl]-4-yl)cyclopropyl)methanesulfonamide] | – | – | – | – | < 100 | < 50 | < 20000 | – |
| CN1CCCN(Cc2ccc(-c3ccc(S(N)(=O)=O)cc3)c(C#N)c2)CC1 [Example 87, 2′-cyano-4′-((4-methyl-1,4-diazepan-1-yl)methyl)-[1,1′-biphenyl]-4-sulfonamide] | – | – | – | – | < 100 | < 100 | > 20000 | – |
| CN1CCCN(Cc2ccc(-c3ccc(CN4CCCN(C)CC4)cc3C#N)c(C#N)c2)CC1 [Example 56, 4,4′-bis((4-methyl-1,4-diazepan-1-yl)methyl)-[1,1′-biphenyl]-2,2′-dicarbonitrile] | – | – | – | – | < 100 | < 100 | < 20000 | – |
| CN1CCCN(Cc2ccc(-c3ccc4[nH]ncc4c3)c(C#N)c2)CC1 [Example 92, 2-(1H-indazol-5-yl)-5-((4-methyl-1,4-diazepan-1-yl)methyl)benzonitrile] | – | – | – | – | < 100 | < 50 | > 20000 | – |
| CC(=O)NNC(=O)CCc1ccc(-c2ccc(CN3CCCN(C)CC3)cc2C#N)cc1 [Example 83, N′-acetyl-3-(2′-cyano-4′-((4-methyl-1,4-diazepan-1-yl)methyl)-[1,1′-biphenyl]-4-yl)propanehydrazide] | – | – | – | – | < 100 | < 50 | > 20000 | – |
| CN1CCCN(Cc2ccc(-c3ccc(CN4CCNC(=O)C4)cc3)c(C#N)c2)CC1 [Example 7, 4-((4-methyl-1,4-diazepan-1-yl)methyl)-4′-((3-oxopiperazin-1-yl)methyl)-[1,1′-biphenyl]-2-carbonitrile] | – | – | – | – | < 200 | < 60000 | – | – |
| CN1CCCN(Cc2ccc(-c3ccc(CN4CCCN(C)CC4)c(F)c3F)cc2)CC1 [Example 41, 4,4′-((2,3-difluoro-[1,1′-biphenyl]-4,4′-diyl)bis(methylene))bis(1-methyl-1,4-diazepane)] | < 100 | < 100 | < 5000 | – | – | – | – | – |
| COC(=O)c1ccc(-c2ccc(CN3CCCN(C)CC3)cc2)cc1 [Example 158, methyl 4′-((4-methyl-1,4-diazepan-1-yl)methyl)-[1,1′-biphenyl]-4-carboxylate] | < 200 | < 60000 | – | – | – | – | – | – |
| CN1CCCN(Cc2ccc(-c3ccc(CN(C)CCO)cc3)c(C#N)c2)CC1 [Example 8, 4′-(((2-hydroxyethyl)(methyl)amino)methyl)-4-((4-methyl-1,4-diazepan-1-yl)methyl)-[1,1′-biphenyl]-2-carbonitrile] | – | – | – | – | < 100 | < 50 | – | – |
| COc1ccc(-c2cc(C(=O)N3CCCN(C)CC3)ccc2-c2ccc(CN3CCCN(C)CC3)cc2C#N)cc1 [Example 66, 4″-methoxy-4-((4-methyl-1,4-diazepan-1-yl)methyl)-4′-(4-methyl-1,4-diazepane-1-carbonyl)-[1,1′:2′,1″-terphenyl]-2-carbonitrile] | – | – | – | – | < 100 | < 50 | < 20000 | – |
| Cc1cc(C(=O)N2CCCN(C)CC2)ccc1-c1ccc(CN2CCCN(C)CC2)cc1 [Example 50, (4-methyl-1,4-diazepan-1-yl)(2-methyl-4′-((4-methyl-1,4-diazepan-1-yl)methyl)-[1,1′-biphenyl]-4-yl)methanone] | – | – | – | – | < 200 | < 60000 | < 5000 | – |
